Experimental data reported in US20080187512A1, “Treatment for spinal muscular atrophy” (Academia Sinica, priority 2007, published 2008).

Experiments:
Format in all cases: cell-based, mouse
[1] = tested on: SMN2; assay: SMN2 splicing pattern, semi-quantitative RT-PCR in SMA-like MEFs; set-up: key to SMN2 splicing pattern MEF: −: no effect; +: effective; +++: most effective; settings: SMA-like MEFs; for SMN2 splicing pattern MEF: TSA 10 nM, sodium butyrate 25 mM, aclarubicin 80 nM, sodium vanadate 50 μM; for influence on SMN2 expression: time-course RT-PCR
[2] = tested on: Stat3 (pY705); assay: Signaling pathway screen in SMN2-NSC34 cells
[3] = tested on: Stat1 (pY701); assay: Signaling pathway screen in SMN2-NSC34 cells
[4] = tested on: Stat6 (pT641); assay: Signaling pathway screen in SMN2-NSC34 cells
[5] = tested on: Jak2 (pY1007/pY1008); assay: Signaling pathway screen in SMN2-NSC34 cells; settings: for Jak2 activation: 2-4 hours after treatment; for Jak2 (pY1007/pY1008) cellular response: SMN2-NSC34 cells; for Jak2 (pY1007/pY1008) cellular response: key: −: decreasing; +/−: no activation; +: slight activation; ++: minor activation; +++: significant activation
Procedure: (§1) Western blot analysis. Cells treated by dsRNA, compounds or Stat5A1*6 transfected were detached by scraping, pelletting and rinsing in PBS. Cell pellets were collected after centrifugation and lysed on ice in modified RIPA buffer (50 mM Tris-HCl (pH7.4), 1% NP-40, 0.25% deoxycholic acid, 0.15M NaCl, 1 mM EDTA, 1 mM PMSF/NaF/sodium orthovanadate, and protease inhibitors cocktail (Roche, Mannheim, Germany) for 30 min. After centrifugation, the supernatants were collected and kept frozen at −20° C. Protein concentrations were determined by Bio-Rad protein assay method. For Western blot analysis, protein samples were boiled for 5 min and electrophoresed on 8% or 10% SDS-polyacrylamide gel in a 1× running buffer (25 mM Tris, 192 mM glycine, 3.4 mM SDS, pH 8.3) and subsequently electrotransferred to Polyvinylidene Fluoride tansfer membrane (Pall, Pensacola, Fla.) using a TE 22 mini-tank transfer unit (Amersham Biosciences, San Francisco, Calif.) at 35 volts overnight in transfer buffer (25 mM Tris, 192 mM glycine, 20% methanol, pH8.3). The blotting membranes were incubated in blocking solution (PBS, 5% non-fat milk, 0.2% Tween-20) for 1 hour at room temperature, and then incubated in the same solution with the primary antibody (human-specific SMN/1:1000; SMN/1:5000, Transduction Laboratories, Lexington, Ky.; phospho-Stat5a/b/1:1000, Cell signaling, Beverly, Mass.; phospho-Jak2/1:1000, Upstate, Lake Placid, N.Y.; Flag BioM2/1:1000, Sigma, St. Louis, MO; c-myc/1:200, Santa Cruz Biotech, Santa Cruz, Calif.; α-Tubilin/1:10000, Upstate, Lake Placid, N.Y., MO), overnight at 4° C. The membranes were washed and incubated in the blocking solution with the proper HRP-conjugated secondary antibody at 1/5000 dilution (Chemicon, Temecula, Calif.) for 1 hour at room temperature. After washing three times in PBS containing 0.1% Tween-20, the signals were visualized by autoradiography (Fuji Medical X-ray film, Fuji Photos, Tokyo) using enhanced chemi-luminescence (ECL detection system; Perkin-Elmer, Boston, Calif.). Western blot quantification was performed by scanning the auto-radiographs with a computerized densitometer. Signal intensities were determined by densitometry analysis (Fuji film LAS-1000 plus pictography) using the program Phoreticx 1D (Phoreticx International).
(§2) Therefore, TSA, aclarubicin and sodium vanadate all induce the activation of Stat5A in motor neuron-like NSC34 cells.

[6] = tested on: ERK1/2 (pT202/pY204); assay: Signaling pathway screen in SMN2-NSC34 cells
[7] = tested on: Stat5 (pT694); assay: Signaling pathway screen in SMN2-NSC34 cells; set-up: Stat5 (pT694) cellular response: key: −: decreasing; +/−: no activation; +: slight activation; ++: minor activation; +++: significant activation; settings: SMN2-NSC34 cells; for phosphorylation level of Stat5 increased compared to control cells: treatment for 4 hours, α-tubulin internal control
Procedure: as §1, §2

[8] = tested on: JNK (pT183/pY185); assay: Signaling pathway screen in SMN2-NSC34 cells
[9] = tested on: Stat2 (pY705); assay: Signaling pathway screen in SMN2-NSC34 cells
[10] = tested on: P38 (pT180/pY182); assay: Signaling pathway screen in SMN2-NSC34 cells
[11] = tested on: SMN2; assay: SMN2 splicing pattern, semi-quantitative RT-PCR in SMN2-NSC34 cells; set-up: key to SMN2 splicing pattern SMN2-NSC34: −: no effect; +: effective; +++: most effective; settings: SMN2-NSC34 cells; TSA 10 nM, sodium butyrate 25 mM, aclarubicin 80 nM, sodium vanadate 100 μM
Procedure: Cell culture and chemical/dsRNA treatment. Mouse embryonic fibroblasts (MEFs) were prepared using the standard protocol. Briefly, E13.5 day embryo was isolated; the uterine deciduas were cut away, and the yolk sac was removed. The embryo was then scraped out to remove non-fibroblastic tissue, and the head severed for genotyping. Embryo body was minced in 0.25% Trypsin-EDTA and incubated for 30 min. It was then added to MEF culture media, and the cell suspension spun for ˜5 min at 1,000 rpm in the tissue culture centrifuge to pellet cells. The supernatant was aspirated off and the cell pellet immediately resuspended in 10 mL of fresh MEF culture media. The MEFs were allowed to reach confluency so the cells could be passaged for further experiments. Cultured MEFs and SMN2-NSC34 cells were maintained in Dulbecco's modified Eagle medium (Invitrogen, Carlsbad, Calif.) containing 10% heat-inactivated fetal bovine serum (Hyclone, Logan, Utah) and 1% penicillin-streptomycin (Invitrogen, Carlsbad, Calif.) and were incubated at 37° C. in a 5% CO2 humidified atmosphere. The cells were plated the day preceding treatment with each chemical and harvested at the indicated time.
Semi-quantitative PCR/RT-PCR. The genomic DNA from E13.5 SMA embryos was extracted. A specific primer pair, SMN forward 5′-[…]-3′ (SEQ ID NO:21) and SMN backward 5′-[…]-3′ (SEQ ID NO:22), was designed for recognition of both murine Smn and human SMN2. The PCR program initially started with a 95° C. denaturation for 10 min, followed by 19 to 26 cycles of 95° C./1 min. 53° C./1.5 min, 72° C./2 min to assay the linear range for both Smn and SMN2. For RT-PCR assay, total RNA was extracted at indicated time points from SMN2-NSC34 cells with sodium vanadate, TSA, and aclarubicin treatment or with an increasing amount of Stat5A1*6 transfection by using the TRizol reagent (Invitrogen, Carlsbad, Calif.). To amplify the exon7 inclusion/exclusion form of SMN2 transcripts, RT-PCR were performed using a primer set P5P6 as previously described (15). The transcript from the mouse glyceraldehyde-3-phosphate dehydrogenase (Gapdh) gene or the β-Actin gene was amplified using the primer pairs: Gapdh forward: 5′-[…]-3′ (SEQ ID NO:23), and backward: 5′-[…]-3′ (SEQ ID NO:24) (56° C.), and β-Actin forward: 5′-[…]-3′ (SEQ ID NO:25), and backward 5′-[…]-3′ (SEQ ID NO:26) (59° C.), and this allowed control of equal amounts of template. […] The gel images were digitally captured with a CCD camera and analyzed with the Alphalmager™. […] Relative total SMN2 transcript levels were determined from Stat5A1*6 transfected SMN2-NSC34 cells in a minimum of three independent experiments. Differences in ratios were determined to be significant by an independent two-tailed t-test, with *, P<0.05, **, P<0.005, ***, p<0.001.

Structure (SMILES): CCCCCCCCCCCCCC(=O)O[C@@H]1[C@@H](C)[C@@]2(O)[C@@H](C=C(CO)C[C@]3(O)C(=O)C(C)=C[C@@H]23)[C@@H]2C(C)(C)[C@]12OC(C)=O [Phorbol-12-myristate-13-acetate]
- SMN2 splicing pattern MEF [1]: −

Structure (SMILES): CC(/C=C/C(=O)NO)=C\[C@@H](C)C(=O)c1ccc(N(C)C)cc1 [Trichostatin A (TSA), Trichostatin A]
- Stat3 (pY705) cellular response ([2]; 4 hrs): +
- Stat3 (pY705) cellular response ([2]; 8 hrs): ++
- Stat1 (pY701) cellular response ([3]; 4 hrs): −
- Stat1 (pY701) cellular response ([3]; 8 hrs): −
- SMN2 splicing pattern MEF [1]: +
- influence on SMN2 expression [1]: found to influence SMN2 expression
- Stat6 (pT641) cellular response ([4]; 4 hrs): +/−
- Stat6 (pT641) cellular response ([4]; 8 hrs): −
- Jak2 activation [5]: found activated
- Jak2 (pY1007/pY1008) cellular response ([5]; 4 hrs): +
- Jak2 (pY1007/pY1008) cellular response ([5]; 8 hrs): +/−
- ERK1/2 (pT202/pY204) cellular response ([6]; 4 hrs): +
- ERK1/2 (pT202/pY204) cellular response ([6]; 8 hrs): +
- Stat5 (pT694) cellular response ([7]; 4 hrs): ++
- Stat5 phosphorylation status at 8 hours [7]: remained activated
- Stat5 (pT694) cellular response ([7]; 8 hrs): +++
- phosphorylation level of Stat5 increased compared to control cells [7]: about 2 fold
- JNK (pT183/pY185) cellular response ([8]; 4 hrs): +/−
- JNK (pT183/pY185) cellular response ([8]; 8 hrs): +
- Stat2 (pY705) cellular response ([9]; 4 hrs): +/−
- Stat2 (pY705) cellular response ([9]; 8 hrs): +/−
- P38 (pT180/pY182) cellular response ([10]; 4 hrs): +/−
- P38 (pT180/pY182) cellular response ([10]; 8 hrs): +

Structure (SMILES): CC1=C(/C=C/C(C)=C/C=C/C(C)=C/C(=O)O)C(C)(C)CCC1 [All-trans retinoic acid]
- SMN2 splicing pattern MEF [1]: −

Structure (SMILES): NC(=O)NO [Hydroxyurea]
- SMN2 splicing pattern MEF [1]: −

Structure (SMILES): CC[C@@]1(O)C[C@H](O[C@H]2C[C@H](N(C)C)[C@H](O[C@H]3C[C@H](O)[C@H](O[C@H]4CCC(=O)[C@H](C)O4)[C@H](C)O3)[C@H](C)O2)c2c(cc3c(c2O)C(=O)c2c(O)cccc2C3=O)[C@H]1C(=O)OC [Aclarubicin]
- Stat3 (pY705) cellular response ([2]; 4 hrs): +
- Stat3 (pY705) cellular response ([2]; 8 hrs): ++
- Stat1 (pY701) cellular response ([3]; 4 hrs): +/−
- Stat1 (pY701) cellular response ([3]; 8 hrs): +/−
- SMN2 splicing pattern MEF [1]: +
- influence on SMN2 expression [1]: found to influence SMN2 expression
- Stat6 (pT641) cellular response ([4]; 4 hrs): +/−
- Stat6 (pT641) cellular response ([4]; 8 hrs): −
- Jak2 activation [5]: found activated
- Jak2 (pY1007/pY1008) cellular response ([5]; 4 hrs): +
- Jak2 (pY1007/pY1008) cellular response ([5]; 8 hrs): +/−
- ERK1/2 (pT202/pY204) cellular response ([6]; 4 hrs): +/−
- ERK1/2 (pT202/pY204) cellular response ([6]; 8 hrs): +/−
- Stat5 (pT694) cellular response ([7]; 4 hrs): ++
- Stat5 phosphorylation status at 8 hours [7]: remained activated
- Stat5 (pT694) cellular response ([7]; 8 hrs): +++
- phosphorylation level of Stat5 increased compared to control cells [7]: about 2 fold
- Stat2 (pY705) cellular response ([9]; 4 hrs): +
- Stat2 (pY705) cellular response ([9]; 8 hrs): +/−
- P38 (pT180/pY182) cellular response ([10]; 4 hrs): +/−
- P38 (pT180/pY182) cellular response ([10]; 8 hrs): +/−

Structure (SMILES): CCCC(=O)[O-].[Na+] [Sodium butyrate]
- SMN2 splicing pattern MEF [1]: +
- SMN2 splicing pattern SMN2-NSC34 [11]: +

Structure (SMILES): CC(=O)N[C@@H](CS)C(=O)O [N-Acetyl-L-cysteine]
- SMN2 splicing pattern MEF [1]: −
